Measurements published in patent US20070049593A1 (priority 2004, published 2007).
pIC50: −log10 of the molar value. Where a name gives a salt, the structure may show the parent alone.

These molecules were tested against T1, HCV polymerase (Hepatitis C virus genotype 1b, UniProt P26663) (assay: biochemical).
T1 construct: a region encoding NS5B (J Virol 1991 March, 65(3), 1105-13, 544 amino acids after deletion of 47 amino acids on the C-terminal); 6xHis (C); made in house; host or cells: Escherichia coli
T1 sequence (P26663 2420-2963): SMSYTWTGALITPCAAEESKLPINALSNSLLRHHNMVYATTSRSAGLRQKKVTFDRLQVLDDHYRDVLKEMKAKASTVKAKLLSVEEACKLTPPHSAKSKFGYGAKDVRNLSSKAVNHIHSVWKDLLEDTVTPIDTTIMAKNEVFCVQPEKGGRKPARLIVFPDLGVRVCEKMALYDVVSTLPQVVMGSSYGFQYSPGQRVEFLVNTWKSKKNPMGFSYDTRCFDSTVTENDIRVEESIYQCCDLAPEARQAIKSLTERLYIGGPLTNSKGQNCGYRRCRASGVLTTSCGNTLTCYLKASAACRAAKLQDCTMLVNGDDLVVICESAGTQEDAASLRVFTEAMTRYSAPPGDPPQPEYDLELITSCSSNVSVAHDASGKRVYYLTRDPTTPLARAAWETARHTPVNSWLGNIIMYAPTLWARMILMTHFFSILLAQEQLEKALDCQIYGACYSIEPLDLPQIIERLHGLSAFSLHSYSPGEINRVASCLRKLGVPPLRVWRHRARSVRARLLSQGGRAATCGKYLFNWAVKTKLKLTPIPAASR
Design: species or system HCV BK strain
Summary of the method: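 Recombinant HCV BK-strain NS5B (C-terminal 47 aa deleted, His6-tagged, E. coli), 0.5 μg/ml, run with 5 μg/ml in vitro-transcribed RNA template (polyU/3′X), ATP/GTP/CTP 50 μM, UTP 2 μM plus [3H]UTP, pH 7.5, 25° C, 90 min. TCA-precipitated RNA counted by scintillation; IC50 from activity with vs without compound.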
CN(C)CCN1CCn2c(c(C3CCCCC3)c3ccc(C(=O)O)cc32)-c2ccc(OCc3ccncc3)cc21 [Example 1-565, 13-cyclohexyl-5-(2-dimethylaminoethyl)-3-(pyridin-4-ylmethoxy)-6,7-dihydro-5H-benzo[5,6][1,4]diazepino[7,1-a]indole-10-carboxylic acid trihydrochloride] showed a pIC50 of over 7.00.
Cc1ccc2c(c1)N(CCN1CCC[C@@H](CCN3CCCC3=O)C1)CCn1c-2c(C2CCCCC2)c2ccc(C(=O)O)cc21 [Example 1-566, 13-cyclohexyl-3-methyl-5-(2-{(S)-3-[2-(2-oxopyrrolidin-1-yl)ethyl]piperidin-1-yl]ethyl}-6,7-dihydro-5H-benzo[5,6][1,4]diazepino[7,1-a]indole-10-carboxylic acid dihydrochloride] showed a pIC50 of over 7.00.
Work on Cc1ccc2c(c1)N(C)C(C)Cn1c-2c(C2CCCCC2)c2ccc(C(=O)O)cc21 (centres unmarked) [Example 1-567, 13-cyclohexyl-3,5,6-trimethyl-6,7-dihydro-5H-benzo[5,6][1,4]diazepino[7,1-a]indole-10-carboxylic acid] yielded a pIC50 of over 7.00.
COc1ccc2c(c1)N(CCN1CCSCC1)CCn1c-2c(C2CCCCC2)c2ccc(C(=O)O)cc21 [Example 1-568, 13-cyclohexyl-3-methoxy-5-[2-(thiomorpholin-4-yl)ethyl]-6,7-dihydro-5H-benzo[5,6][1,4]diazepino[7,1-a]indole-10-carboxylic acid dihydrochloride] was tested, and the pIC50 was over 7.00.
Molecule Cc1ccc2c(c1)N(C)CCn1c-2c(C2CCCCC2)c2ccc(C(=O)O)c(C)c21 [Example 1-569, 13-cyclohexyl-3,5,9-trimethyl-6,7-dihydro-5H-benzo[5,6][1,4]diazepino[7,1-a]indole-10-carboxylic acid] has a pIC50 of 6.00 to 7.00.
With COCC[C@@H]1CCCN(C(=O)CN2CCn3c(c(C4CCCCC4)c4ccc(C(=O)O)cc43)-c3ccc(C)cc32)C1 [Example 1-570, 13-cyclohexyl-5-{2-[(S)-3-(2-methoxyethyl)piperidin-1-yl]-2-oxoethyl}-3-methyl-6,7-dihydro-5H-benzo[5,6][1,4]diazepino[7,1-a]indole-10-carboxylic acid] the pIC50 was over 7.00.
Molecule Cc1ccc2c(c1)N(CC(=O)N1CCN(S(C)(=O)=O)CC1)CCn1c-2c(C2CCCCC2)c2ccc(C(=O)O)cc21 [Example 1-571, 13-cyclohexyl-5-[2-(4-methanesulfonylpiperazin-1-yl)-2-oxoethyl]-3-methyl-6,7-dihydro-5H-benzo[5,6][1,4]diazepino[7,1-a]indole-10-carboxylic acid] has a pIC50 of over 7.00.
COC1CCN(C(=O)CN2CCn3c(c(C4CCCCC4)c4ccc(C(=O)O)cc43)-c3ccc(C)cc32)CC1 [Example 1-572, 13-cyclohexyl-5-[2-(4-methoxypiperidin-1-yl)-2-oxoethyl]-3-methyl-6,7-dihydro-5H-benzo[5,6][1,4]diazepino[7,1-a]indole-10-carboxylic acid] was tested, and the pIC50 was over 7.00.
With CNC(=O)c1ccc2c(C3CCCCC3)c3n(c2c1)CCN(CC(=O)N1CCN(S(C)(=O)=O)CC1)c1cc(C)ccc1-3 [Example 1-573, N-methyl-13-cyclohexyl-5-[2-(4-methanesulfonylpiperazin-1-yl)-2-oxoethyl]-3-methyl-6,7-dihydro-5H-benzo[5,6][1,4]diazepino[7,1-a]indole-10-carboxamide] the pIC50 was over 7.00.
Cc1ccc2c(c1)N(C)CCn1c-2c(C2CCCCC2)c2ccc(C(=O)O)cc21 [Example 1-574, 13-cyclohexyl-3,5-dimethyl-6,7-dihydro-5H-benzo[5,6][1,4]diazepino[7,1-a]indole-10-carboxylic acid] was tested, and the pIC50 was over 7.00.
Work on CN(C)CCN1CCn2c(c(C3CCCCC3)c3ccc(C(=O)O)cc32)-c2ccc(OCCN3CCOC3=O)cc21 [Example 1-575, 13-cyclohexyl-5-(2-dimethylaminoethyl)-3-[2-(2-oxooxazolidin-3-yl)ethoxy]-6,7-dihydro-5H-benzo[5,6][1,4]diazepino[7,1-a]indole-10-carboxylic acid dihydrochloride] yielded a pIC50 of over 7.00.
In the case of CN(C)CCN1CCn2c(c(C3CCCCC3)c3ccc(C(=O)O)cc32)-c2ccc(OCCNCCO)cc21 [Example 1-576, 13-cyclohexyl-5-(2-dimethylaminoethyl)-3-[2-(2-hydroxyethylamino)ethoxy]-6,7-dihydro-5H-benzo[5,6][1,4]diazepino[7,1-a]indole-10-carboxylic acid trihydrochloride], the pIC50 was over 7.00.
In the case of COc1cccc(COc2ccc3c(c2)N(CCN(C)C)CCn2c-3c(C3CCCCC3)c3ccc(C(=O)O)cc32)c1 [Example 1-577, 13-cyclohexyl-5-(2-dimethylaminoethyl)-3-(3-methoxybenzyloxy)-6,7-dihydro-5H-benzo[5,6][1,4]diazepino[7,1-a]indole-10-carboxylic acid dihydrochloride], the pIC50 was over 7.00.
Molecule CN(C)CCN1CCn2c(c(C3CCCCC3)c3ccc(C(=O)O)cc32)-c2ccc(OCc3cccc(N)c3)cc21 [Example 1-578, 3-(3-aminobenzyloxy)-13-cyclohexyl-5-(2-dimethylaminoethyl)-6,7-dihydro-5H-benzo[5,6][1,4]diazepino[7,1-a]indole-10-carboxylic acid trihydrochloride] has a pIC50 of over 7.00.
Work on CN(C)CCN1CCn2c(c(C3CCCCC3)c3ccc(C(=O)O)cc32)-c2ccc(OCc3cccc([N+](=O)[O-])c3)cc21 [Example 1-579, 13-cyclohexyl-5-(2-dimethylaminoethyl)-3-(3-nitrobenzyloxy)-6,7-dihydro-5H-benzo[5,6][1,4]diazepino[7,1-a]indole-10-carboxylic acid dihydrochloride] yielded a pIC50 of over 7.00.
COC(=O)N1CCC(CCN2CCn3c(c(C4CCCCC4)c4ccc(C(=O)O)cc43)-c3ccc(Cl)cc32)CC1 [Example 1-580, 3-chloro-13-cyclohexyl-5-[2-(1-methoxycarbonylpiperidin-4-yl)ethyl]-6,7-dihydro-5H-benzo[5,6][1,4]diazepino[7,1-a]indole-10-carboxylic acid] gave a pIC50 of over 7.00.
For Cc1ccc2c(c1)N(CCc1ccc(F)cc1)CCn1c-2c(C2CCCCC2)c2ccc(C(=O)O)cc21 [Example 1-581, 13-cyclohexyl-5-[2-(4-fluorophenyl)ethyl]-3-methyl-6,7-dihydro-5H-benzo[5,6][1,4]diazepino[7,1-a]indole-10-carboxylic acid], the pIC50 was over 7.00.
Work on CC(=O)Nc1cccc(COc2ccc3c(c2)N(CCN(C)C)CCn2c-3c(C3CCCCC3)c3ccc(C(=O)O)cc32)c1 [Example 1-582, 3-(3-acetylaminobenzyloxy)-13-cyclohexyl-5-(2-dimethylaminoethyl)-6,7-dihydro-5H-benzo[5,6][1,4]diazepino[7,1-a]indole-10-carboxylic acid dihydrochloride] yielded a pIC50 of over 7.00.
For COC(=O)c1ccc2c(C3CCCCC3)c3n(c2c1)CCN(CCN(C)C)c1cc(OCc2cccc(C(=O)O)c2)ccc1-3 [Example 1-583, methyl 3-(3-carboxybenzyloxy)-13-cyclohexyl-5-(2-dimethylaminoethyl)-6,7-dihydro-5H-benzo[5,6][1,4]diazepino[7,1-a]indole-10-carboxylate dihydrochloride], the pIC50 was 6.00 to 7.00.
CN(C)CCN1CCn2c(c(C3CCCCC3)c3ccc(C(=O)O)cc32)-c2ccc(OCCCN3CCCCC3)cc21 [Example 1-584, 13-cyclohexyl-5-(2-dimethylaminoethyl)-3-[3-(piperidin-1-yl)propoxy]-6,7-dihydro-5H-benzo[5,6][1,4]diazepino[7,1-a]indole-10-carboxylic acid trihydrochloride] gave a pIC50 of over 7.00.
Molecule CN(C)CCN1CCn2c(c(C3CCCCC3)c3ccc(C(=O)O)cc32)-c2ccc(OCc3cccc(N4CCCC4=O)c3)cc21 [Example 1-585, 13-cyclohexyl-5-(2-dimethylaminoethyl)-3-[3-(2-oxopyrrolidin-1-yl)benzyloxy]-6,7-dihydro-5H-benzo[5,6][1,4]diazepino[7,1-a]indole-10-carboxylic acid trihydrochloride] has a pIC50 of over 7.00.
Work on CN(C)CCN1CCn2c(c(C3CCCCC3)c3ccc(C(=O)O)cc32)-c2ccc(OCc3cccc(C(=O)O)c3)cc21 [Example 1-586, 3-(3-carboxybenzyloxy)-13-cyclohexyl-5-(2-dimethylaminoethyl)-6,7-dihydro-5H-benzo[5,6][1,4]diazepino[7,1-a]indole-10-carboxylic acid dihydrochloride] yielded a pIC50 of over 7.00.
CN(C)CCN1CCn2c(c(C3CCCCC3)c3ccc(C(=O)O)cc32)-c2ccc(OCc3cccc(C(=O)N(C)C)c3)cc21 [Example 1-587, 13-cyclohexyl-5-(2-dimethylaminoethyl)-3-(3-dimethylcarbamoylbenzyloxy)-6,7-dihydro-5H-benzo[5,6][1,4]diazepino[7,1-a]indole-10-carboxylic acid dihydrochloride] gave a pIC50 of over 7.00.
Cc1ccc2c(c1)N(CCc1nc(C)cs1)CCn1c-2c(C2CCCCC2)c2ccc(C(=O)O)cc21 [Example 1-588, 13-cyclohexyl-3-methyl-5-[2-(4-methylthiazol-2-yl)ethyl]-6,7-dihydro-5H-benzo[5,6][1,4]diazepino[7,1-a]indole-10-carboxylic acid] showed a pIC50 of over 7.00.
Cc1cccc(COc2ccc3c(c2)N(CCN(C)C)CCn2c-3c(C3CCCCC3)c3ccc(C(=O)O)cc32)n1 [Example 1-589, 13-cyclohexyl-5-(2-dimethylaminoethyl)-3-(6-methylpyridin-2-ylmethoxy)-6,7-dihydro-5H-benzo[5,6][1,4]diazepino[7,1-a]indole-10-carboxylic acid trihydrochloride] was tested, and the pIC50 was over 7.00.
For CNC(=O)c1cccc(COc2ccc3c(c2)N(CCN(C)C)CCn2c-3c(C3CCCCC3)c3ccc(C(=O)O)cc32)c1 [Example 1-590, 13-cyclohexyl-5-(2-dimethylaminoethyl)-3-(3-methylcarbamoylbenzyloxy)-6,7-dihydro-5H-benzo[5,6][1,4]diazepino[7,1-a]indole-10-carboxylic acid dihydrochloride], the pIC50 was over 7.00.
